Like-named read-outs stand apart in the source and are kept apart here.
Key:
patients with PAH = test: Phase IIA randomized, double-blind, placebo-controlled clinical trial of tacrolimus in PAH (NCT01647945); type: in vivo, human
Method: Tacrolimus was selected as the agent for increasing BMPR2 signaling. A phase IIA trial to assess the safety and tolerability of different doses tacrolimus (goal blood level <2 ng/ml, 2-3 ng/ml, 3-5 ng/ml) vs Placebo was conducted (Clinical Trials Identifier: NCT01647945). The secondary endpoints were change in clinical worsening, change in 6-min walk distance, NT-pro BNP, Uric Acid, and novel echo parameters. The phase IIA trial was a single center trial with 23 patients. This study was open to male or female subjects, 18-70 years of age, with pulmonary hypertension. The Inclusion and Exclusion criteria used are below:
• 1. Age ≥18 and <70 years • 2. Diagnosis of WHO Group I Pulmonary Arterial Hypertension (PAH) (Idiopathic (I)PAH, Heritable PAH (including Hereditary Hemorrhagic Telangiectasia), Associated (A)PAH (including collagen vascular disorders, drugs+toxins exposure, congenital heart disease, and portopulmonary disease). • 3. Stable on active PAH treatment including any prostacycline or phosphodiesterase inhibitors and the endothelin antagonist Ambrisentan alone or in combination (stability defined as: <10% change in 6 MWD, no change in NYHA class, no hospitalization or addition of PAH therapy for at least 3 months). • 4. Previous Right Heart Catheterization (RHC) that documented: • a. Mean PAP ≥25 mmHg. • b. Pulmonary capillary wedge pressure <15 mmHg. • c. Pulmonary Vascular Resistance ≥3.0 Wood units or 240 dynes/see/cm5 • 5. All NYHA/WHO functional classes. • 6. Willingness of female subjects to use birth control, or be post-menopausal, or status post hysterectomy.
• 1. WHO Group II-V Pulmonary Hypertension. • 2. Current or prior experimental PAH treatments within the last 6 months (including but not limited to tyrosine kinase inhibitors, rho-kinase inhibitors, or cGMP modulators). • 3. Current active treatment with the dual endothelin receptor antagonist bosentan. • 4. Total lung Capacity (TLC)<60% predicted; if TLC b/w 60 and 70% predicted, high resolution computed tomography must be available to exclude significant interstitial lung disease. • 5. Forced expiratory volume (FEV1)/Forced Vital Capacity (FVC)<70% predicted and FEV1<60% predicted • 6. Significant left-sided heart disease (based on screening Echocardiogram): • a. Significant aortic or mitral valve disease • b. Diastolic dysfunction≥Grade II • c. Left Ventricle (LV) systolic function <45% • d. Pericardial constriction • e. Restrictive cardiomyopathy • f. Significant coronary disease with demonstrable ischemia. • 7. Chronic renal insufficiency defined as an estimated creatinine clearance <30 ml/min (by Modification of diet in renal disease (MDRD) equation). • 8. Current atrial arrhythmias not under optimal control. • 9. Uncontrolled systemic hypertension: SBP>160 mm or DBP>100 mm • 10. […]

[1] = system: BMPR2 signaling (BRE from the Id1 promoter linked to luciferase, C2C12 mouse myoblastoma reporter cells); test: BRE-Luc reporter high throughput screen for compounds that increase BMPR2 signaling; type: cell-based; settings: screen of library of >3,600 compounds
Method: A C2C12 mouse myoblastoma reporter cells line where the BRE (BMP Response Element) from the Id1 promoter (a main downstream target of BMP signaling) was linked to luciferase (BRE-Luc) was used to identify compounds that increase BMPR2 signaling. Thus, activation of the BMP pathway was measured by luminescence. A high throughput screen of a library containing greater than 3,600 compounds was used.

PAH patients = settings: for symptoms and exercise capacity: within 1 month of initiation, ambrisentan
[2] = all three patients, first 3-6 months
[3] = patient #1, after 3 months of treatment
[4] = patient #1, baseline, 3 and 6 months
[5] = patient #2, 12 months follow-up
[6] = patient #2, baseline, 3 and 6 months
[7] = patient #2, within 3 months of treatment

infections (PAH patients; human, in vivo, iv): did not report an increase of infections
SMILES: C=CC[C@@H]1/C=C(\C)C[C@H](C)C[C@H](OC)[C@H]2O[C@@](O)(C(=O)C(=O)N3CCCC[C@H]3C(=O)O[C@H](/C(C)=C/[C@@H]3CC[C@@H](O)[C@H](OC)C3)[C@H](C)[C@@H](O)CC1=O)[C@H](C)C[C@@H]2OC [Tacrolimus, tacrolimus]
BMPR2 signaling (biomarker data) (patients with PAH; PAH patients): increase in BMPR2 signaling | drug-related serious adverse events (patients with PAH; all tested doses): no drug-related serious adverse events | incidences of hypertension or cardiovascular events (patients with PAH; all tested doses): no incidences of hypertension or cardiovascular events | tolerability (patients with PAH; all tested doses (goal blood level <2, 2-3, 3-5 ng/ml)): well tolerated | BMPR2 signaling (activation of the BMP pathway measured by luminescence) [1]: increased BMPR2 signaling | REVEAL risk score (PAH patients; all 3 patients): improved | hospital admission for worsening of heart failure (PAH patients; all three patients, during treatment): None of the patients was admitted | 6 MWD (PAH patients; [2]): increase | NT-pro BNP (PAH patients; [2]): decrease | tolerability (PAH patients; human, in vivo): tolerated low-dose tacrolimus very well | symptoms and exercise capacity (PAH patients; patient #1 (IPAH), trough goal 1.5-2.5 ng/mL, on epoprostenol, sildenafil): substantial improvement | PAH associated hospitalizations (PAH patients; patient #1, 12 months after initiation (3 in the 12 months prior)): free of any PAH associated hospitalizations | NT-proBNP (PAH patients; [3]): 678 pg/mL | NYHA class symptoms (PAH patients; [3]): NYHA Class I | improvement in 6 MWD (PAH patients; [3]): approximately 100 meters | lowering of NT-proBNP (PAH patients; [3]): > 50% | RV ejection fraction (RVEF), cMRI (PAH patients; [4]): stable | RV end-diastolic volume index (RVEDVi), cMRI (PAH patients; [4]): stable | RV stroke volume index (RVSVi), cMRI (PAH patients; [4]): increased | cardiac index (CI), cMRI (PAH patients; [4]): increased | REVEAL risk score (PAH patients; patient #1, on treatment (11 at transplant listing)): 3 | lung transplant list status (PAH patients; patient #1, within 2 months): placed on a status 7 (hold) for transplantation | symptoms and exercise capacity (PAH patients; patient #2 (systemic sclerosis associated PAH), on treprostinil, sildenafil, dopamine): some improvement | PAH related hospitalizations (PAH patients; patient #2, 12 months after initiation (4 in the 15 months prior)): free from any PAH related hospitalizations | CO (PAH patients; [5]): 3.4 L/min | NT-pro BNP (PAH patients; [5]): 1,895 pg/mL | NT-pro BNP reduction compared to baseline (PAH patients; [5]): 30% | NYHA symptoms (PAH patients; [5]): stable NYHA III symptoms | PAWP (PAH patients; [5]): 10 mmHg | PVR (PAH patients; [5]): 14.1 WU | SVO2 (PAH patients; [5]): 59% | increase in 6 MWD (PAH patients; [5]): 94 meter | mPAP (PAH patients; [5]): 58 mmHg | mRAP (PAH patients; [5]): 7 mmHg | CI, cMRI (PAH patients; [6]): improvement | RVEDVi, cMRI (PAH patients; [6]): stable | RVEF, cMRI (PAH patients; [6]): substantial improvement | RVSVi, cMRI (PAH patients; [6]): improvement | REVEAL risk score (PAH patients; patient #2, on treatment (from 12)): 11 | NT-pro BNP (PAH patients; patient #2, within 1 month (from 2,669)): 1,895 pg/mL | 6 MWD improved by (PAH patients; [7]): 18 meters | NT-pro BNP (PAH patients; [7]): 1,580 pg/mL | NYHA symptoms (PAH patients; [7]): stable NYHA III symptoms | symptoms (PAH patients; patient #3 (drugs and toxins associated PAH), over a 5-months period, on treprostinil, sildenafil): symptomatic improvement
